The values below come from patent US7192952B2, “Heterocyclic compounds that are inhibitors of the enzyme DPP-IV” (Novo Nordisk, A/S, priority 2001, dated 2007).

Structures can show the parent of a compound that is named as a salt.

For orientation: melting point means the temperature, or range, at which the solid turns liquid.

Compound `Cn1c(=O)c2c(nc(N3CC[C@H](N)C3)n2Cc2ccccc2C#N)n(C)c1=O` (as salt: HCl) [Example 8, (S) 2-(8-(3-Aminopyrrolidin-1-yl)-1,3-dimethyl-2,6-dioxo-1,2,3,6-tetrahydropurin-7-ylmethyl)benzonitrile] registered a melting point of 104 to 117 °C.

For `Cn1c(=O)c2c(nc(N3CC[C@H](N)C3)n2Cc2ccccc2Br)n(C)c1=O` (as salt: HCl) [Example 12, (S) 8-(3-Aminopyrrolidin-1-yl)-7-(2-bromobenzyl)-1,3-dimethyl-3,7-dihydropurine-2,6-dione], the melting point fell in the range of 215 to 217 °C.

For the compound `Cn1c(=O)c2c(nc(N3CC[C@H](N)C3)n2Cc2ccccc2)n(C)c1=O` (as salt: HCl) [Example 3, (S) 8-(3-Aminopyrrolidin-1-yl)-7-benzyl-1,3-dimethyl-3,7-dihydropurine-2,6-dione], the melting point was 166 to 169 °C.
